Results: patent US20230255943A1, “MMP-9 AND MMP-12 INHIBITION FOR TREATING SPINAL CORD INJURY OR RELATED INJURY TO NEUROLOGICAL TISSUE” (The University of Birmingham, priority 2020, published 2023)

Tests used:
MMP-12 = target: T1, MMP-12 (Rattus norvegicus, UniProt Q63341); test: MMP-12 activity after DC injury in rats; assay type: in vivo; settings: oral
T1 construct: from tissue; host or cells: Sprague-Dawley rat spinal cord lesion site
Protocol: (§1) The efficacy of oral AZD3342 in the DC injury model in adult Sprague-Dawley rat was also assessed. Animals were divided into 6 groups: (1), Sham (control); (2), DC crush injury+Vehicle; (3), DC crush injury+15 mg/kg AZD3342; (4), DC crush injury+75 mg/kg […]; (5), DC crush injury+375 mg/kg AZD3342; and (6), DC crush injury+Melatonin. Animals were dosed twice daily with oral AZD3342 or vehicle with the experimenters masked to the treatment conditions. These experiments were performed with n=6 rats/group and repeated on 2-3 independent occasions (total n=12-18 rats/group/test).
The lesion site+3 mm either side for mouse (DC and CC SCI) and lesion site+5 mm either side for rat was dissected (n=6 mice/rats/group, 2 independent repeats, total n=12 mice/rats/group) and rapidly frozen in liquid N2 and stored at −80° C. until required. The enzymatic activity of MMP-9 and MMP-12 was determined in 96-well plates using the SensoLyte 520 MMP-9 and MMP-12 fluorimetric assay kit, according to the manufacturer's instructions (AnaSpec, Fremont, Calif., USA). Fluorescence intensity was measured using a Synergy H1 microplate reader (BioTek UK, Swindon, UK) at Ex/Em=490/520 nm.

[1] = tested on: rats with DC crush injury; test: Tape sensing and removal (sensory function) in rat DC model; assay type: in vivo; settings: over 6 weeks
Protocol: as §1
Functional testing after DC lesion and treatment was carried out as described previously (N. D. Fagoe, C. L. Attwell, R. Eggers, L. Tuinenbreijer, D. Kouwenhoven, J. Verhaagen, M. R. Mason, Evaluation of Five Tests for Sensitivity to Functional Deficits following Cervical or Thoracic Dorsal Column Transection in the Rat. PLoS One 11, e0150141 (2016)). […]
Tape removal test (sensory function): The tape removal test determines touch perception from the left hind paw. After holding animals with both hind-paws extended, the time it took for the animal to detect and remove a piece of tape of 15×15 mm (Kip Hochkrepp, Bocholt, Germany) affixed to the palm of the left hind-paw was recorded and used to calculate the mean sensing time.

mice with CC SCI = test: Assessment of neuropathic pain (mechanical, thermal, cold allodynia) in CC model; assay type: in vivo, mouse
Protocol: CC SCI was administered at the T7-T8 vertebral level after exposure of T6-T9 by laminectomy. The aneurysm clip applicator was oriented in a bilateral direction and an aneurysm clip with a closing force of 24 g was applied extradurally for 60 s, as described previously (A. S. Rivlin, C. H. Tator, Effect of duration of acute spinal cord compression in a new acute cord injury model in the rat. Surg Neurol 10, 38-43 (1978):E. Esposito, I. Paterniti, E. Mazzon, T. Genovese, M. Galuppo, R. Meli, P. Bramanti, S. Cuzzocrea, MK801 attenuates secondary injury in a mouse experimental compression model of spinal cord trauma. BMC Neurosci 12, 31 (2011)).
The urinary bladders were manually emptied twice daily until bladder function was regained. Adult male C57BL6 mice (25-30 g) (Charles River, Margate, UK) were randomly allocated to either: (1), Sham (control; laminectomy but no CC SCI); (2), CC SCI+vehicle; (3), CC SCI+200 mg/kg AZD1236 (oral); (4), CC SCI+5 mg/kg AZD1236 (it). All experiments were performed with n=6 mice/group and repeated on 3 independent occasions (total=18 mice/group/test).
Mechanical allodynia was measured in mice using a series of von Frey filaments (0.25 g-15 g) applied to the plantar surface of the hind-paw by an experimenter masked to the treatment conditions and withdrawal of the paw was recorded as a positive response (F. Nasirinezhad, S. Gajavelli, B. Priddy, S. Jergova, J. Zadina, J. Sagen, Viral vectors encoding endomorphins and serine histogranin attenuate neuropathic pain symptoms after spinal cord injury in rats. Mol Pain 11, 2 (2015)).
The hair with the lowest force required to elicit a paw withdrawal response was recorded. […]
Thermal hyperalgesia was tested using established methods of plantar heat sensitivity tests described previously (S. Surey, M. Berry, A. Logan, R. Bicknell, Z. Ahmed, Differential cavitation, angiogenesis and wound-healing responses in injured mouse and rat spinal cords. Neuroscience 275, 62-80 (2014)). […] The reaction time of paw withdrawal was recorded for five separate tests for each hind limb with a 30-s interval before re-testing on the same paw. […]
Cold allodynia was measured by an experimenter masked to the treatment conditions as the number of foot withdrawal responses after application of an acetone drop to the plantar surface of the paw (F. Nasirinezhad, S. Gajavelli, B. Priddy, S. Jergova, J. Zadina, J. Sagen, Viral vectors encoding endomorphins and serine histogranin attenuate neuropathic pain symptoms after spinal cord injury in rats. Mol Pain 11, 2 (2015)). Testing was repeated five times with an interval of 5 min between each test and the response frequency to acetone was expressed as a percent response frequency ([number of paw withdrawals/number of trials]×100).

[2] = tested on: mice with DC crush injury; test: Horizontal ladder test (locomotor function) after DC injury in mice; assay type: in vivo, mouse
Protocol: Functional testing after DC lesion and treatment was carried out as described previously (N. D. Fagoe, C. L. Attwell, R. Eggers, L. Tuinenbreijer, D. Kouwenhoven, J. Verhaagen, M. R. Mason, Evaluation of Five Tests for Sensitivity to Functional Deficits following Cervical or Thoracic Dorsal Column Transection in the Rat. PLoS One 11, e0150141 (2016)).
Briefly, animals (n=18/group) were first trained to master traversing a horizontal ladder for 1 w before functional testing. Baseline parameters were established by performing tests at 2-3d before injury. Animals were then tested at 2d, 1 w, 2 w, 3 w, 4 w, 5 w and 6 w after DC injury+treatment. Experiments were performed by an observer masked to the treatment conditions in the same order and time of day with each test performed for 3 individual trials.
Horizontal ladder test: This tests the animals locomotor function and is performed on a 0.9-meter-long horizontal ladder with a diameter of 15.5 cm and randomly adjusted rungs with variable gaps of 3.5-5.0 cm. Animals were assessed traversing the ladder and the left and right rear paw slips were recorded along with the total number of steps and the mean error rate as: the number of slips/total number of steps.

T1 sequence (Q63341 102-465): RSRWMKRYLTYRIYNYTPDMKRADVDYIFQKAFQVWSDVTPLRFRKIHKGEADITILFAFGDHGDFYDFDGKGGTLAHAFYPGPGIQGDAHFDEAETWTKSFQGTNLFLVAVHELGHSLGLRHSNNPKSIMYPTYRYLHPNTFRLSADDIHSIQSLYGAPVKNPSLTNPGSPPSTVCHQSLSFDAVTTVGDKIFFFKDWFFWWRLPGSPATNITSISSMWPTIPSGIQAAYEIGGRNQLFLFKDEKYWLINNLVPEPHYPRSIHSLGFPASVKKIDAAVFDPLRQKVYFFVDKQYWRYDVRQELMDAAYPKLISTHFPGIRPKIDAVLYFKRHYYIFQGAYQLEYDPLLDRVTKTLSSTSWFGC

SMILES	MMP-12 activity (MMP-12)	sensory function (tape sensing and removal) [1]	cold allodynia, improvement (mice with CC SCI; oral delivery)	mechanical allodynia, improvement (mice with CC SCI; oral delivery)	thermal allodynia, improvement (mice with CC SCI; oral delivery)	improvements in mechanical, thermal and cold allodynia vs pregabalin and gabapentin (mice with CC SCI; pregabalin 30 mg/kg, gabapentin 100 mg/kg)	locomotor function, 24-h delayed treatment ([2]; optimal doses, 24 h delay vs immediate)	improvement in locomotor function ([2]; oral)	mean error ratio, ladder crossing test ([2]; oral, by 2 weeks after injury)
C[C@]1(CS(=O)(=O)N2CCC(Oc3ccc(Cl)cn3)CC2)NC(=O)NC1=O [AZD3342, (5S)-5-[4-(5-chloro-pyridin-2-yloxy)-piperidine-1-sulfonylmethyl]-5-methylimidazolidine-2,4-dione]	significantly suppresses	significantly improved	–	–	–	–	–	–	–
C[C@]1(CS(=O)(=O)N2CC=C(C#Cc3cnc(C4CC4)nc3)CC2)NC(=O)NC1=O [AZD1236]	–	–	> 80 % of sham-treated controls	> 80 % of sham-treated controls	> 80 % of sham-treated controls	significantly better	equally as effective as immediate delivery	85%	indistinguishable from sham-treated animals
